Broadly, the EC50 is the concentration giving half of the maximal effect. Usually IC50 stands for the concentration needed to halve the response being measured.

This passage reports EC50 and IC50 results from US11339193B2, “CDP protein secretion inhibitors” (KEZAR LIFE SCIENCES, priority 2018, dated 2022).

Numbered stars: 1 amine (or outer) side, 2 acyl side, 3 side chain; on linkers, the order of the positions; unused ones are H or OH. Square brackets hold non-standard residues; d marks the D form. Peptide text beside a SMILES is read from it. NMeTrp(1-(4-Br-benzyl)) = CN[C@@H](Cc1cn(Cc2ccc(Br)cc2)c2ccccc12)C(=O)O; X17 = CN([C@@H](Cc1cn(-c2ccccc2)c2ccccc12)C(=O)[*:2])[*:1]; Butanoyl(2R-oxy,4-CN) = N#CCC[C@@H](O)C(=O)O; Nva(5,5,5-F3) = N[C@@H](CCC(F)(F)F)C(=O)O; Abu(4,4,4-F3) = N[C@@H](CC(F)(F)F)C(=O)O; NMeL = CN[C@@H](CC(C)C)C(=O)O; NMeA = CN[C@@H](C)C(=O)O

Type in all cases: cell-based
For assay [1], the system named is JJN3 plasma cell leukemia cell line. Nature of the assay: JJN-3 assay (Alamar blue). Particulars: Homo sapiens, 72 h. The method, then:
(§1) BT474 is a human breast tumor cell line. JJN3 is a human plasma cell leukemia cell line. […] Cells were seeded at 100 000 cells/mL. Aliquots of 5000 cells (50 μL) were added to each well in black, clear bottom 96-well plates. Compounds or control (50 uL of 1% DMSO in cell culture medium) were added to the cells to the indicated final concentrations and cells were incubated for 72 h (unless otherwise specified). After incubation was complete, Alamar blue (10 uL of a 1 mg/mL solution) was added to each well and plates were incubated for 5 h. Fluorescence was then measured (excitation 545 nm, emission 590 nm) and is reported as […] normalized to DMSO control.
(Resazurin is reduced to fluorescent resorufin, in cell work by metabolically active cells.)

Assay [2] has as its system HER3ss-Gluc. Nature of the assay: HER3ss assay. The note with it: HEK-293T T-rex cells, transient transfection, doxycycline, 24 h; read-out: HER3 ss IC50. The method, boiled down:
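HEK-293T T-REx cells were transiently transfected with HER3 signal sequence (plus four mature-domain residues) fused upstream of mature Gaussia luciferase. Cells were induced with doxycycline (1 μg/ml) and exposed to increasing compound concentrations for 24 h, then secreted luciferase in the conditioned medium was read by luminescence.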

Assay [3] concerns BT474 breast tumor cell line. Nature of the assay: BT474 assay (Alamar blue). The note with it: Homo sapiens, BT-474, 72 h. The protocol: as §1
The test system of assay [4] is Prl-ss+10aa/Gaussia Luciferase. Nature of the assay: Prl-ss-Gluc assay (constitutively active or 24 hr Dox inducible). The note with it: Flp-In 293 T-REx cells, 24 hours; read-out: Prl IC50. In short, it runs like this: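 Stable Flp-In 293 T-REx lines express Prl signal sequence+10aa fused to Gaussia luciferase, either constitutively (pcDNA5/FRT) or under the T-REx promoter (pcDNA5/FRT/TO). Cells plated the day before; compounds in DMSO/media (with doxycycline for the inducible line, 24 h) incubated at 37 °C, 5% CO2.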

Assay [5] concerns TNFα-FL/Gaussia Luciferase. Nature of the assay: Dox induced TNFα-FL-Gluc assay. The note with it: Flp-In 293 T-REx cells, doxycycline, 24 hours; read-out: TNFa FL Gluc IC50. In short, it runs like this: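 Stable Flp-In 293 T-REx line expressing full-length TNFα (aa 1-233) fused at its C-terminus to Gaussia luciferase under doxycycline-inducible control. Cells plated the day before, then given compound dilutions in DMSO/media containing doxycycline and incubated at 37 °C, 5% CO2.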

Assay [6] concerns NCI-H929 multiple myeloma cell line. Nature of the assay: H929 assay (cell viability, Celltiter-Glo). Particulars: Homo sapiens, NCI-H929; 48 hours, cell viability; read-out: H929 EC50. In short, it runs like this: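 Cells plated in RPMI 1640 with 10% FBS and 2 mM glutamine, treated with compound dilutions in DMSO/media. Incubation 48 h at 37° C, 5% CO2. Viability from luciferase luminescence signal.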
In general terms: ATP-based viability assays read luminescence as a measure of living cells.

In assay [7] the test system is PD1-ss+10aa/Gaussia Luciferase. Nature of the assay: Dox induced PD1-ss-Gluc assay. The note with it: Flp-In 293 T-REx cells, doxycycline, 24 hours; read-out: PD1ss Gluc IC50. The method, boiled down: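 Stable Flp-In 293 T-REx line expressing doxycycline-inducible Gaussia luciferase fused to the PD1 signal sequence plus 10 amino acids. Cells plated the day before, then exposed to compound dilutions in DMSO/media containing doxycycline at 37 °C, 5% CO2.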

The subject of assay [8] is VCAMss+10aa/Gaussia Luciferase. Nature of the assay: VCAM-ss-Gluc assay (constitutively active or Dox induced). Particulars: Flp-In 293 T-REx cells, 24 hours. The protocol:
Assays Constitutively Active VCAM-ss-Gluc Assay
Transfected cells were selected for resistance to the selectable markers Hygromycin and Blasticidin to create a stable cell line that constitutively expressed the VCAMss+ 10aa/Gaussia Luciferase fusion protein. The day before assay, cells were trypsinized and plated in 384-well tissue culture plates. The next day, culture media was removed from the wells and replaced with fresh media. Compound dilutions in DMSO/media were added to the wells and incubated at 37° C., 5% CO2.
Dox Induced VCAM-ss-Gluc Assay
Transfected cells were selected for resistance to the selectable markers Hygromycin and Blasticidin to create a stable cell line that contained the VCAMss+10aa/Gaussia Luciferase cDNA insert whose expression was regulated under the T-REx™ system. The day before assay, cells were trypsinized and plated in 384-well tissue culture plates. The next day, compound dilutions in DMSO/media containing doxycycline were added to the wells and incubated at 37° C., 5% CO2.

The subject of assay [9] is U266B1 multiple myeloma cell line. Briefly: U266 assay (cell viability, Celltiter-Glo). The note with it: Homo sapiens, U-266; 48 hours, cell viability. The method, then: Cells were plated in 384-well tissue culture plates and treated with compound dilutions in DMSO/media. Plates were incubated at 37° C., 5% CO2 for 48 hours. After 48 hours, Celltiter-Glo@ (Promega) was added to each well and luciferase signal was quantified using Tecan Infinite M1000 Pro for cell viability determination.

Consider `CC(C)C[C@@H]1NC(=O)[C@H](Cc2cn(Cc3cccc(OC(F)(F)F)c3)c3ccccc23)N(C)C(=O)[C@H](CC(C)C)NC(=O)[C@H](CC(C)C)N(C)C(=O)[C@H](CC(C)C)NC(=O)[C@@H](CCC#N)OC(=O)[C@H](C)N(C)C1=O` [C-75] (HELM PEPTIDE1{L.[meA].[N#CCC[C@@H](O[*:1])C(=O)[*:2]].L.[meL].L.[CN([C@@H](Cc1cn(Cc2cccc(OC(F)(F)F)c2)c2ccccc12)C(=O)[*:2])[*:1]]}$PEPTIDE1,PEPTIDE1,1:R1-7:R2$$$V2.0), for which the EC50 in [1] is 0.92 µM; in assay [3], 8.22 µM. Also, the 50% inhibitory concentration (IC50) in [2] was 0.857 µM.
Turning to `COc1ccccc1Cn1cc(C[C@H]2C(=O)N[C@@H](CC(C)C)C(=O)N(C)[C@@H](C)C(=O)O[C@H](CCC#N)C(=O)N[C@@H](CC(C)C)C(=O)N(C)[C@@H](CC(C)C)C(=O)N[C@@H](CC(C)C)C(=O)N2C)c2ccccc21` [C-32] (HELM PEPTIDE1{L.[meA].[N#CCC[C@@H](O[*:1])C(=O)[*:2]].L.[meL].L.[COc1ccccc1Cn1cc(C[C@@H](C(=O)[*:2])N(C)[*:1])c2ccccc21]}$PEPTIDE1,PEPTIDE1,1:R1-7:R2$$$V2.0), the 50% inhibitory concentration (IC50) in [4] was determined as 14.2 µM; in [5], 1.05 µM; in assay [2] it was 0.161 µM; in assay [7], 0.203 µM. For the same molecule, the half-maximal effective concentration (EC50) was determined as 4.72 µM in [6] and 5.28 µM in assay [3].
Consider `CC(C)C[C@@H]1NC(=O)[C@H](CC(C)C)N(C)C(=O)[C@H](CC(F)(F)F)NC(=O)[C@@H](CCC#N)OC(=O)[C@H](C)N(C)C(=O)[C@H](CCC(F)(F)F)NC(=O)[C@H](Cc2cn(Cc3ccc(Br)cc3)c3ccccc23)N(C)C1=O` [C-48] (cyclo(L[NMeTrp(1-(4-Br-benzyl))][Nva(5,5,5-F3)][NMeA][Butanoyl(2R-oxy,4-CN)][Abu(4,4,4-F3)][NMeL])), for which the IC50 came out at 1.34 µM in [4], 0.133 µM in assay [5], 0.036 µM in assay [8] and 0.027 µM in assay [7]. For the same molecule, the results for the half-maximal effective concentration (EC50) in assay [1], in assay [6] and in [3] were 0.284 µM, 1.63 µM and 1.24 µM, respectively.
In the case of `CC(C)C[C@@H]1NC(=O)[C@H](Cc2cn(Cc3ccc(Br)cc3)c3ccccc23)N(C)C(=O)[C@H](CC(F)(F)F)NC(=O)[C@H](CC(C)C)N(C)C(=O)[C@H](CC(F)(F)F)NC(=O)[C@@H](CCC#N)OC(=O)[C@H](C)N(C)C1=O` [C-58, 3-((2R,5S,8S,11S,14S,17S,20S)-14-((1-(4-bromobenzyl)-1H-indol-3-yl)methyl)-8,17-diisobutyl-7,13,19,20-tetramethyl-3,6,9,12,15,18,21-heptaoxo-5,11-bis(2,2,2-trifluoroethyl)-1-oxa-4,7,10,13,16,19-hexaazacyclohenicosan-2-yl)propanenitrile] (cyclo(L[NMeA][Butanoyl(2R-oxy,4-CN)][Abu(4,4,4-F3)][NMeL][Abu(4,4,4-F3)][NMeTrp(1-(4-Br-benzyl))])), the 50% inhibitory concentration (IC50) worked out at 0.619 µM in [4], 0.09 µM in assay [5] and 0.025 µM in assay [7]. The EC50 was 0.111 µM in assay [1], 0.629 µM in assay [6] and 0.444 µM in assay [3].
For the molecule `CC(C)C[C@@H]1NC(=O)[C@H](Cc2cn(Cc3cccc(Br)c3)c3ccccc23)N(C)C(=O)[C@H](CC(C)C)NC(=O)[C@H](CC(C)C)N(C)C(=O)[C@H](CC(C)C)NC(=O)[C@@H](CCC#N)OC(=O)[C@H](C)N(C)C1=O` [C-77] (HELM PEPTIDE1{L.[meA].[N#CCC[C@@H](O[*:1])C(=O)[*:2]].L.[meL].L.[CN([C@@H](Cc1cn(Cc2cccc(Br)c2)c2ccccc12)C(=O)[*:2])[*:1]]}$PEPTIDE1,PEPTIDE1,1:R1-7:R2$$$V2.0), the EC50 was 2.5 µM in [1] and 15.1 µM in assay [3]. For the same molecule, the IC50 in assay [2] stood at 0.787 µM.
In the same order, the values of `CC(C)C[C@@H]1NC(=O)[C@H](Cc2cn(Cc3cccc(OC(F)F)c3)c3ccccc23)N(C)C(=O)[C@H](CC(C)C)NC(=O)[C@H](CC(C)C)N(C)C(=O)[C@H](CC(C)C)NC(=O)[C@@H](CCC#N)OC(=O)[C@H](C)N(C)C1=O` [C-76] (HELM PEPTIDE1{L.[meA].[N#CCC[C@@H](O[*:1])C(=O)[*:2]].L.[meL].L.[CN([C@@H](Cc1cn(Cc2cccc(OC(F)F)c2)c2ccccc12)C(=O)[*:2])[*:1]]}$PEPTIDE1,PEPTIDE1,1:R1-7:R2$$$V2.0) are 0.669 µM, 5.84 µM and 0.245 µM.
Turning to `COc1ccc(Cn2cc(C[C@H]3C(=O)N[C@@H](CC(C)C)C(=O)N(C)[C@@H](C)C(=O)O[C@H](CCC#N)C(=O)N[C@@H](CC(C)C)C(=O)N(C)[C@@H](CC(C)C)C(=O)N[C@@H](CC(C)C)C(=O)N3C)c3ccccc32)cc1` [C-31] (HELM PEPTIDE1{L.[meA].[N#CCC[C@@H](O[*:1])C(=O)[*:2]].L.[meL].L.[COc1ccc(Cn2cc(C[C@@H](C(=O)[*:2])N(C)[*:1])c3ccccc32)cc1]}$PEPTIDE1,PEPTIDE1,1:R1-7:R2$$$V2.0), the IC50 in assay [5] stood at 4.06 µM; in [2], 0.264 µM; in [7] it was 0.38 µM. The EC50 turned out to be 2.06 µM in assay [1] and 5.89 µM in assay [3].
Regarding `CC(C)C[C@@H]1NC(=O)[C@H](Cc2ccccc2)N(C)C(=O)[C@H](CC(C)C)NC(=O)[C@H](CC(C)C)N(C)C(=O)[C@H](CC(C)C)NC(=O)[C@@H](CCC#N)OC(=O)[C@H](C)N(C)C1=O` [C-37] (HELM PEPTIDE1{L.[meA].[N#CCC[C@@H](O[*:1])C(=O)[*:2]].L.[meL].L.[meF]}$PEPTIDE1,PEPTIDE1,1:R1-7:R2$$$V2.0), the half-maximal inhibitory concentration (IC50) was 18.5 µM in assay [4], 1.02 µM in [5], 0.267 µM in [2] and 0.582 µM in assay [7]. Also, the concentration for a half-maximal effect (EC50) worked out at 8.81 µM in [1], 6.29 µM in assay [6], 20.9 µM in assay [9] and 6.36 µM in [3].
Turning to `CC(C)C[C@@H]1NC(=O)[C@H](Cc2cn(-c3ccccc3)c3ccccc23)N(C)C(=O)[C@H](CC(C)C)NC(=O)[C@H](CC(C)C)N(C)C(=O)[C@H](CC(F)(F)F)NC(=O)[C@@H](CCC#N)OC(=O)[C@H](C)N(C)C1=O` [C-51] (cyclo(L[NMeA][Butanoyl(2R-oxy,4-CN)][Abu(4,4,4-F3)][NMeL]L[X17])), the figures for the IC50 in assay [5], in [8] and in [7] were 0.836 µM, 0.072 µM and 0.133 µM, respectively. Further, the figures for the EC50 in [1], in [6] and in assay [3] were 1.07 µM, 6.2 µM and 3.44 µM, respectively.
For the molecule `CC(C)C[C@@H]1NC(=O)[C@H](Cc2cn(Cc3ccc(Br)cc3)c3ccccc23)N(C)C(=O)[C@H](CCC(F)(F)F)NC(=O)[C@H](CC(C)C)N(C)C(=O)[C@H](CC(F)(F)F)NC(=O)[C@@H](CCC#N)OC(=O)[C@H](C)N(C)C1=O` [C-57] (cyclo(L[NMeA][Butanoyl(2R-oxy,4-CN)][Abu(4,4,4-F3)][NMeL][Nva(5,5,5-F3)][NMeTrp(1-(4-Br-benzyl))])), the results for the half-inhibitory concentration (IC50) in [4], in [5] and in [7] were 1.5 µM, 0.112 µM and 0.026 µM, respectively. Moreover, the figures for the EC50 in [1], in [6] and in [3] were 0.154 µM, 0.834 µM and 0.832 µM, respectively.
